Results: patent publication US20100144704A1, “Method of reducing amyloid-beta peptide levels using a bisdioxopiperazine” (priority 2006, published 2010)
Values joined by “and” are separate entries in the source; they are usually repeats but may differ in a detail not shown here. Identical values can stand only once.

Tests used:
[1] = system: Aβ1-42 peptide; assay: Brain Aβ1-42 by sandwich ELISA in double transgenic mice after 21 day razoxane treatment; type: in vivo; details: for Average Conc, Aβ1-42: group average; for Conc, Aβ1-42: individual mouse cerebral cortex sample
Protocol: (§1) Double transgenic male mice (APP Swedish mutation+PS1 mutation) express human amyloid precursor protein (APP) and amyloid-β peptide (Aβ) within their brain and form amyloid depositions from 4 months onward. Razoxane (ICRF 159) was administered by intraperitoneal (i.p.) injection once daily for 21 consecutive days to a group of such mice, 5 to 6 months of age and approximately 22 to 28 g in weight. […] Within three hours of the final razoxane/vehicle administration, animals were killed, their brain exposed and a 50-80 mg sample of cerebral cortex collected and frozen at […].

[2] = cited from earlier work
[3] = cited from earlier work; remark: listed apart in the source
[4] = system: SHSY-5Y human neuronal cells; assay: Cellular toxicity / cell viability by MTT assay; type: cell-based
Protocol: (§2) Cell Culture. The human neuroblastoma cell line, SHSY-5Y, was obtained from the American Type Culture Collection, culture medium was from Mediatech, Inc. (Herndon, Va.) and FCS from HyClone (Logan, Utah). Drug Treatment. […] Cells were allowed to grow in complete media (10% FCS, 2 mM glutamine in DMEM) for 2 days to reach 70% confluence. Thereafter, spent media was removed and replaced with fresh media (2 mL DMEM) containing 0 to 100 μM of freshly prepared compounds (clioquinol, razoxane and dexrazoxane. Cells were incubated at 37° C., 5% CO2 for 16 h. APP Western Blot and cell viability. Fifteen μg of protein from each sample was mixed with Laemmli buffer, boiled for 5 min at 100° C., and loaded onto a 10% SDS PAGE gel (Novex, San Diego, Calif.). […] The blots were incubated in secondary antibody, anti-mouse IgG—conjugated to horseradish peroxidase, for 30 min. Thereafter, samples were detected by chemiluminescence. Cell viability was assessed by a sensitive MTT assay. Values were expressed as the mean of between four and six independent assays and were statistically compared to control values. (See FIGS. 3-5).

[5] = system: APP; assay: APP Western blot in SHSY-5Y cell culture; type: cell-based, human; details: for APP, percent control levels / APP, % control levels: 16 h; for APP, % control levels: FIG. 5 study
Protocol: as §2

[6] = in vivo; cited from earlier work
[7] = system: Aβ1-40 peptide; assay: Brain Aβ1-40 by sandwich ELISA in double transgenic mice after 21 day razoxane treatment; type: in vivo; details: for Average Conc, Aβ1-40: group average; for Conc, Aβ1-40: individual mouse cerebral cortex sample
Protocol: as §1

[8] = razoxane compared to dexrazoxane
From the text: The pharmacokinetics of razoxane compared to those of dexrazoxane.

[9] = 30 mg/kg once daily x 21 days, male 5 month old transgenic mice
[10] = razoxane 20 mg/kg i.p. once daily x 21 days
[11] = razoxane 30 mg/kg i.p. once daily x 21 days

Which “Reduction of brain Aβ1-42 compared to the control group” value [1, 9] does the source give for CC(CN1CC(=O)NC(=O)C1)N1CC(=O)NC(=O)C1 (racemic) [Razoxane, 1,2-bis(3,5-dioxopiperazin-1-yl)-propane] here?
The value was 29%.

What about the “Average Conc, Aβ1-42” value [1, 10] of the same compound?
Its value is 564 pM.

What about the “Conc, Aβ1-42” value [1, 10] of the same compound?
Its value is 489 pM and 545 pM and 533 pM and 562 pM and 553 pM and 701 pM.

And the “Average Conc, Aβ1-42” value [1, 11]?
The value was 326 pM.

And the “Conc, Aβ1-42” value [1, 11]?
Its value is 365 pM and 504 pM and 471 pM and 216 pM and 27.2 pM and 370 pM.

And the Plasma half-life ([2]; humans)?
The Plasma half-life was “about 3.5 hours”.

What about the Oral bioavailability ([2]; in vivo, po) of the same compound?
Its Oral bioavailability is “orally bioavailable”.

And the Tolerance in humans ([2]; oral dose of 125 mg, twice a day for five days each week for up to two years)?
Its Tolerance in humans is “relatively well tolerated”.

What about the “Aqueous solubility (in words)” value [3] of the same compound?
Its value is “relatively low aqueous solubility”.

And the “Cellular toxicity against SHSY-5Y cells” value ([4]; concentrations up to 100 μM, 16 h, FIG. 3)?
Its value is “well tolerated and without toxicity”.

And the “APP, percent control levels” value ([5]; 0.5 μM, FIG. 4)?
Its value is 81%.

And the “APP, % control levels” value ([5]; 0.5 μM)?
Its value is 75%.

And the “APP, percent control levels” value ([5]; 2 μM, FIG. 4)?
Its value is 60%.

And the “APP, percent control levels” value ([5]; 10 μM, FIG. 4)?
The value was 53%.

And the “APP, % control levels” value ([5]; 10 μM)?
The value was 42%.

And the “Crossing of the blood/brain barrier” value [6]?
The value was “cross the blood/brain barrier”.

What about the “Reduction of brain Aβ1-40 compared to the control group” value [7, 9] of the same compound?
Its value is 46%.

And the “Average Conc, Aβ1-40” value [7, 10]?
Its value is 375 pM.

And the “Conc, Aβ1-40” value [7, 10]?
The value was 316.435 pM and 386.757 pM and 378.84 pM and 406.557 pM and 290.284 pM and 468.154 pM.

What about the “Average Conc, Aβ1-40” value [7, 11] of the same compound?
The value was 213 pM.

What about the “Conc, Aβ1-40” value [7, 11] of the same compound?
Its value is 162.992 pM and 310.189 pM and 295.464 pM and 129.452 pM and 134.783 pM and 244.537 pM.

What about the “Elimination from the body” value [8] of the same compound?
Its value is “slower elimination”.

What does the source list for CC(CN1CC(=O)NC(=O)C1)N1CC(=O)NC(=O)C1 (single isomer, unassigned; (+)) [Dexrazoxane, (+)-1,2-Bis(3,5-dioxopiperazin-1-yl)propane]?
Aqueous solubility (in words) [3]: more soluble; APP, % control levels ([5]; 0.5 μM): 87%; APP, % control levels ([5]; 10 μM): 59%; Elimination from the body [8]: eliminated more rapidly

Which Cell viability ([4]; 10 μM, associated with the 18% APP decline, FIG. 4) does the source give for Oc1c(I)cc(Cl)c2cccnc12 [Clioquinol] here?
Its Cell viability is “loss of cell viability”.

And the “APP, percent control levels” value ([5]; 0.5 μM, FIG. 4)?
The value was 108%.

What about the “APP, percent control levels” value ([5]; 2 μM, FIG. 4) of the same compound?
Its value is 116%.

What about the “APP, percent control levels” value ([5]; 10 μM, FIG. 4) of the same compound?
The value was 82%.

And the “Effect at lowering APP (in words)” value ([5]; FIG. 4)?
The value was “without affect”.
